From patent US8158670B2 (priority 1996, dated 2012)
Read-outs that look alike come from different tables or passages of the source.

Tested on: vascular smooth muscle cells

Measured: morphological cytotoxicity grade

C=C1[C@@H](C)[C@H]2[C@H](Cc3ccccc3)NC(=O)[C@]23OC(=O)/C=C/[C@H](O)CCC[C@@H](C)C/C=C/[C@H]3[C@@H]1O [cytochalasin B]
4.5: 5 min + 72 hrs, 10 ug
5: 5 min + 96 hrs, 10 ug | 5 min + 120 hrs, 10 ug
1: 5 min + 48 hrs, 1 ug | 5 min + 72 hrs, 1 ug | 5 min + 96 hrs, 1 ug | 5 min + 120 hrs, 1 ug | 24 hrs + 48 hrs, 0.1 ug | Continuous 24 hrs (first listing, r16), 0.1 ug | Continuous 48 hrs, 0.1 ug
0: 5 min + 24 hrs, 0.1 ug | 5 min + 48 hrs, 0.1 ug | 5 min + 72 hrs, 0.1 ug | 5 min + 96 hrs, 0.1 ug | 5 min + 120 hrs, 0.1 ug | 24 hrs + 24 hrs, 0.01 ug | 24 hrs + 48 hrs, 0.01 ug | 24 hrs + 72 hrs, 0.01 ug | 24 hrs + 96 hrs, 0.01 ug | 24 hrs + 96 hrs, 0.1 ug | 24 hrs + 120 hrs, 0.01 ug | 24 hrs + 120 hrs, 0.1 ug | Continuous 6 hrs, 0.01 ug | Continuous 6 hrs, 0.1 ug | Continuous 24 hrs (first listing, r16), 0.01 ug | Continuous 24 hrs (second listing, r22), 0.01 ug | Continuous 24 hrs (second listing, r22), 0.1 ug | Continuous 48 hrs, 0.01 ug
4: 5 min + 24 hrs, 10 ug | 5 min + 48 hrs, 10 ug | 24 hrs + 48 hrs, 1 ug | 24 hrs + 72 hrs, 1 ug | 24 hrs + 96 hrs, 1 ug | 24 hrs + 120 hrs, 1 ug
3: 24 hrs + 24 hrs, 1 ug | Continuous 6 hrs, 1 ug | Continuous 24 hrs (first listing, r16), 1 ug | Continuous 24 hrs (second listing, r22), 1 ug | Continuous 48 hrs, 1 ug
0.5: 5 min + 24 hrs, 1 ug | 24 hrs + 24 hrs, 0.1 ug | 24 hrs + 72 hrs, 0.1 ug
